{"source": "patent US20170049726A1", "about": "“METFORMIN IN TREATMENT OF NEUROBLASTOMA” (UNIVERSITY OF SOUTH CAROLINA, priority 2015, published 2017)", "key": {"sox2": {"system": "sox2", "experiment": "Western blot of stem cell marker protein sox2 in metformin-treated SK-N-BE(2) cells", "format": "cell-based, human", "settings": "metformin 1, 10 and 20 mM, 2 days, vs untreated control", "procedure": "(§1) SH-SY5Y, IMR-32, SK-N-BE(2) and SKNF-1 human neuroblastoma cells were purchased from The American Type Culture Collection (ATCC; Manassas, Va.), and NGP cells were kind gift from Garrett M. Brodeur (The Children's Hospital of Philadelphia, Philadelphia, Pa.). Cells were maintained as monolayer in Dulbecco's Modified Eagle's Medium (DMEM) containing 10% fetal bovine serum (FBS; Atlanta Biologicals, Lawrenceville, Ga.) and 1% antibiotic-antimycotic solution (100 unit/ml penicillin, […]; Gibco, Grand Island, N.Y.) at 37° C. in a humidified incubator with 5% CO2. For all the experiments, cell culture passages from 4-12 were used.\n(§2) Cells, either from monolayer or from spheroids, were dissociated by trypsinization, washed with 1× phosphate buffered saline (PBS), pH 7.5, and lysed with 1× cell lysis buffer (Cell Signaling Technology, Danvers, Mass.) containing phenylmethylsulfonyl fluoride (PMSF) and protease inhibitors (aprotinin and leupeptin) for 30 min on ice. […] Protein concentration was determined by bicinchoninic acid method using BCA protein assay kit (Pierce/Thermo-scientific, Waltham, Mass.). Equal amount of proteins were diluted with 5×Laemmli samples loading buffer, boiled for five minutes, separated on sodium dodecyl sulfate (SDS)-polyacrylamide gel, and analyzed by Western blotting. […]"}, "nanog": {"system": "nanog", "experiment": "Western blot of stem cell marker protein nanog in metformin-treated SK-N-BE(2) cells", "format": "cell-based, human", "settings": "metformin 1, 10 and 20 mM, 2 days, vs untreated control", "procedure": "as §1, §2"}, "oct4": {"system": "oct4", "experiment": "Western blot of stem cell marker protein oct4 in metformin-treated SK-N-BE(2) cells", "format": "cell-based, human", "settings": "metformin 1, 10 and 20 mM, 2 days, vs untreated control", "procedure": "as §1, §2"}, "SK-N-BE(2) cells [1]": {"system": "SK-N-BE(2) cells", "experiment": "Immunofluorescence staining of cleaved caspase-3 and sox2 in SK-N-BE(2) monolayer cells", "format": "cell-based, human", "settings": "metformin 10 mM, 2 days", "procedure": "Neuroblastoma cells grown in Lab-TekII chamber slides (Fisher Scientific, Pittsburgh, Pa.) were treated with metformin in complete culture medium. After treatments, cells were washed with 1×PBS, fixed with 4% paraformaldehyde/PBS for 20 min, and incubated in 1×PBS buffer containing 0.1M glycine and 0.3% Triton X-100 for 30 min at room temperature. Cells were washed with 1×PBS for 4 times (10 min each) and blocked with 5% immunoglobulin (IgG)-free bovine serum albumin (BSA; Jackson ImmunoResearch Laboratories, West Grove, Pa.) in 1×PBS for overnight at 4° C. Cells were incubated with antibodies raised against sox2, oct4 and nanog, and active form of caspase-3 diluted in 2.5% BSA+0.3% Triton X-100 in PBS for overnight at 4° C. Primary antibodies were detected with secondary antibodies conjugated with AlexaFluor-488 or AlexaFluor-568 for 2 h at room temperature. After washing with 1×PBS, cells were mounted with antifade Vectashield™ mounting media (Vector Laboratories, Burlingame, Calif.), and signals were visualized under Nikon™-E600 fluorescence microscope. Nuclei were stained with 4′, 6-diamidino-2-phenylindole (DAPI; Sigma). […]"}, "SK-N-BE(2) cells [2]": {"system": "SK-N-BE(2) cells", "experiment": "Primary spheroid formation assay", "format": "cell-based, human", "settings": "20 days", "procedure": "(§3) For spheroid formation, adherent cells were trypsin digested (0.25% Trypsin-EDTA) for 3-4 min at 37° C., washed and suspended in the serum-free stem cell specific medium [DMEM/F-12 medium (Lonza, Switzerland) supplemented with 1% N-2 supplement, 2% B-27 without vitamin A, 20 ng/ml human recombinant epidermal growth factor (hrEGF), 20 ng/ml human recombinant basic fibroblast growth factor (bFGF) and 1% antibiotic-antimycotic solution; all from Gibco]. The dispersed single cells were plated at density of 1,000 cells/well in Costar ultra-low attachment six-well plates (Corning Inc., Corning, N.Y.), and treated with indicated concentrations of metformin. The stock solution of metformin (MP Biomedicals, Solon, Ohio) was freshly prepared in sterile triple distilled water before each experiment. Cells treated with equal volume of vehicle were used as control. Cell culture medium was changed on every fourth day. […]\n(§4) To test the effect of metformin in neuroblastoma spheroid formation, SK-N-BE(2) cells were grown in stem cell specific medium on ultra-low attachment plates and the growth of spheroid formation was monitored For spheroid formation assays, SK-N-BE(2) cells were seeded at density of 1000 cells per well in six-well plate in stem cell-specific medium with or without metformin (0.1, 0.5, 1, 10 and 20 mM). After 20 days, pictures of formed spheroids were taken and the number of spheroids equal to or larger than 100 μm in size (termed primary spheroids) was counted (FIG. 7 at A and B). […] Secondary spheroid formation (as an indicator of self-renewal potential of neuroblastoma spheres) was analyzed. After 20 days, the number of formed secondary spheroids (equal or larger than 100 μm in size) was counted and plotted (FIG. 7 at C)."}, "SK-N-BE(2) cells [3]": {"system": "SK-N-BE(2) cells", "experiment": "Secondary spheroid formation assay (self-renewal)", "format": "cell-based, human", "settings": "metformin at lower concentration (0.1 mM), 20 days", "procedure": "as §3, with “metformin.” for “metformin. The stock solution of metformin (MP Biomedicals, Solon, Ohio) was freshly prepared in sterile triple distilled water before each experiment. Cells treated with equal volume of vehicle were used as control. Cell culture medium was changed on every fourth day.”\nas §4, with “After 20 days, the number of formed secondary spheroids (equal or larger than 100 μm in size) was counted and plotted (FIG. 7 at C).” left out"}, "SK-N-BE(2) spheroids": {"system": "SK-N-BE(2) spheroids", "experiment": "Immunofluorescence of cleaved caspase-3 in SK-N-BE(2) spheroids", "format": "cell-based, human", "settings": "metformin-treated SK-N-BE(2) spheroids", "procedure": "Neuroblastoma cells grown in Lab-TekII chamber slides (Fisher Scientific, Pittsburgh, Pa.) were treated with metformin in complete culture medium. After treatments, cells were washed with 1×PBS, fixed with 4% paraformaldehyde/PBS for 20 min, and incubated in 1×PBS buffer containing 0.1M glycine and 0.3% Triton X-100 for 30 min at room temperature. Cells were washed with 1×PBS for 4 times (10 min each) and blocked with 5% immunoglobulin (IgG)-free bovine serum albumin (BSA; Jackson ImmunoResearch Laboratories, West Grove, Pa.) in 1×PBS for overnight at 4° C. Cells were incubated with antibodies raised against sox2, oct4 and nanog, and active form of caspase-3 diluted in 2.5% BSA+0.3% Triton X-100 in PBS for overnight at 4° C. Primary antibodies were detected with secondary antibodies conjugated with AlexaFluor-488 or AlexaFluor-568 for 2 h at room temperature. After washing with 1×PBS, cells were mounted with antifade Vectashield™ mounting media (Vector Laboratories, Burlingame, Calif.), and signals were visualized under Nikon™-E600 fluorescence microscope. Nuclei were stained with 4′, 6-diamidino-2-phenylindole (DAPI; Sigma)."}, "[4]": {"system": "tumors generated from SK-N-BE(2) spheroids", "experiment": "In vivo xenograft of tumors generated from SK-N-BE(2) spheroids", "set-up": "species or system athymic nude mice (nu/nu)", "settings": "100 mg/kg daily by oral gavage, 21 days of treatment, nude mice", "procedure": "SK-N-BE(2) neuroblastoma spheroids (15-day-old) were dissociated by trypsinization, washed with stem cell specific medium and counted. 1×10^5 cells were mixed (1:1 volume) with EGF-reduced matrigel (BD Bioscience, San Jose, Calif.) to make total volume of 0.1 ml. The cell mixture (0.1 ml) was injected subcutaneously (s.c.) into flanks of 6-week-old female nude athymic mice (nu/nu mice; Charles River Laboratories, Wilmington, Mass.). The animals were housed at 25° C. with a 12-h light/12-h dark cycle in laminar flow cabinets under specific pathogen-free conditions and given sterile water and food ad libitum. Engrafted mice were inspected for tumor appearance, and tumor growth was measured on every fourth day using a caliper. Tumor volume was calculated using the ellipsoid formula (length×width×height×0.5). […]\nTo assess whether metformin has inhibitory effects on the tumorigenicity of neuroblastoma stem cells, tumors were generated from neuroblastoma stem cells by inoculating tumor cells from SK-N-BE(2) spheroids (15-day-old) subcutaneously in to the flank region of athymic nude mice. […] The size of tumors was measured on every fourth day, and after 21 days of metformin treatment tumors were harvested and sizes were measured."}, "SK-N-BE(2) tumors": {"system": "SK-N-BE(2) tumors", "experiment": "Immunohistochemistry of cleaved caspase-3 and sox2 in SK-N-BE(2) tumor sections", "format": "in vivo, athymic nude mice (nu/nu)", "settings": "tumors from mice treated with metformin 100 mg/kg daily oral", "procedure": "For tumor tissue, paraformaldehyde-fixed paraffin-embedded tumor sections (5 μm thick) were deparaffinized in xylene, rehydrated with sequential immersion in graded ethanol (100%, 95%, 85%, 70% and 50%). Antigen unmasking was carried out by boiling slides in 10 mM sodium citrate buffer, pH 6.0, at 95° C. for 30 min. After cooling down at room temperature, sections were incubated with 0.1M glycine+0.3% Triton X-100/PBS for 30 min, and were blocked with 10% IgG-free BSA in 1×PBS for overnight at 4° C. Sections were incubated with primary antibodies diluted in 5% IgG-free BSA+0.3% Triton X-100/PBS (1:100 dilution) for overnight at 4° C. Primary antibodies were detected as described in previous paragraph. Primary antibodies used were: sox2, oct4 and nanog, and active form of caspase-3.\nTo determine if metformin inhibition of tumor growth resulted from apoptotic cell death in tumor stem cells, immunohistochemistry was performed by staining paraffin-embedded tumor sections with antibodies specific for active cleaved form of caspase-3 (an indicator of apoptosis) and stem cell specific marker sox2."}}}
{"smiles": "CN(C)C(=N)NC(=N)N", "note": "[metformin, N′,N′-dimethylbiguanide]", "values": [{"measurement": "level of sox2 protein", "setting": "sox2", "value": "dose dependently decreased"}, {"measurement": "level of nanog protein", "setting": "nanog", "value": "dose dependently decreased"}, {"measurement": "oct4 protein expression", "setting": "oct4", "value": "No change"}, {"measurement": "cleaved caspase-3 signals (apoptotic cell death)", "setting": "SK-N-BE(2) cells [1]", "value": "present in both sox2-expressing and sox2-nonexpressing cells"}, {"measurement": "number of primary spheroids vs control", "setting": "SK-N-BE(2) cells [2]; metformin 0.1 mM", "value": "similar"}, {"measurement": "primary spheroid formation", "setting": "SK-N-BE(2) cells [2]; metformin 0.5 mM and higher concentrations", "value": "reduced primary spheroid formation significantly"}, {"measurement": "formation of primary spheroids (equal to or larger than 100 μm)", "setting": "SK-N-BE(2) cells [2]; metformin 0.1, 0.5, 1, 10 and 20 mM, overall vs control", "value": "significantly decreased the formation of primary neuroblastoma spheroids in a dose dependent manner"}, {"measurement": "secondary spheroid formation", "setting": "SK-N-BE(2) cells [3]", "value": "significantly inhibited secondary spheroid formation"}, {"measurement": "cleaved caspase-3 signal in sox2-expressing cells of spheroids", "setting": "SK-N-BE(2) spheroids", "value": "induced apoptotic death in spheroids"}, {"measurement": "size of the subcutaneous tumor vs control", "setting": "[4]", "value": "less"}, {"measurement": "cytoplasmic cleaved caspase-3 signals in tumor tissues", "setting": "SK-N-BE(2) tumors", "value": "present"}]}
